Test results reported in patent US9302999B2, “Substituted triazoles as herbicides” (E. I. DU PONT DE NEMOURS AND COMPANY, priority 2012, dated 2016).

Columns and labels:
Type in all cases: in vivo
[1] = test system: beggarticks (hairy beggarticks, Bidens pilosa); assay: Test F pre-/postemergence: beggarticks; details: Preemergence
How it was run: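 Preemergence treatment of seeds sown in silt loam soil, and postemergence treatment of plants 2–18 cm tall (1- to 4-leaf stage), with compounds in non-phytotoxic solvent plus surfactant. Greenhouse 14–21 days, then visual rating versus controls on 0–100 scale (100 = complete control).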

[2] = test system: goosegrass (Eleusine indica); assay: Test F pre-/postemergence: goosegrass; details: Preemergence
From the text: Seeds of plant species selected from corn (Zea mays), soybean (Glycine max), velvetleaf (Abutilon theophrasti), lambsquarters (Chenopodium album), poinsettia, wild (wild poinsettia, Euphorbia heterophylla), pigweed, palmer (palmer pigweed, Amaranthus palmeri), waterhemp (common waterhemp, Amaranthus rudis), surinam grass (Brachiaria decumbens), crabgrass, Brazil (Brazilian crabgrass, Digitaria horizontalis), panicum, fall (fall panicum Panicum dichotomiflorum), crabgrass, large (large crabgrass, Digitaria sanguinalis), foxtail, giant (giant foxtail, Setaria faberii), foxtail, green (green foxtail Setaria viridis), goosegrass (Eleusine indica), ragweed (common ragweed, Ambrosia elatior), barnyardgrass (Echinochloa crus-galli), sandbur (southern sandbur, Cenchrus echinatus), arrowleaf sida (Sida rhombifolia), ryegrass, Italian (Italian ryegrass, Lolium multiflorum), dayflower, VA (Virginia (VA) dayflower, Commelina virginica), field bindweed (Convolvulus arvensis), cocklebur (common cocklebur, Xanthium strumarium), morningglory (Ipomoea coccinea), nightshade (eastern black nightshade, Solanum ptycanthum), kochia (Kochia scoparia), nutsedge, yellow (yellow nutsedge, Cyperus esculentus), johnsongrass (Sorghum halepense), smartweed (ladysthumb smartweed, Polygonum persicaria), and beggarticks (hairy beggarticks, Bidens pilosa), were planted into a silt loam soil and treated preemergence with test chemicals formulated in a non-phytotoxic solvent mixture which included a surfactant. At the same time, plants selected from these crop and weed species and also pigweed (Amaranthus retroflexus), waterhemp_RES1 (ALS/Triazine resistant common waterhemp, Amaranthus rudis) and waterhemp_RES2 (ALS/HPPD resistant common waterhemp, Amaranthus rudis) were planted in pots containing a planting medium comprising spaghnum peat moss, vermiculite, wetting agent and starter nutrients treated with postemergence applications of some of the test chemicals formulated in the same manner. Plants ranged in height from 2 to 18 cm for postemergence treatments (1- to 4-leaf stage).
(§1) Treated plants and controls were maintained in a greenhouse for 14 to 21 days, after which time all species were compared to controls and visually evaluated. Plant response ratings, summarized in Table E, are based on a scale of 0 to 100 where 0 is no effect and 100 is complete control. A dash (-) response means no test result.

[3] = test system: Waterhemp; assay: Test C preemergence: waterhemp; details: 62 g ai/ha, scale of 0 to 100, 0 is no effect, 100 is complete control
From the text: Seeds of plant species selected from blackgrass (Alopecurus myosuroides), bromegrass, downy (downy bromegrass, Bromus tectorum), foxtail, green (green foxtail, Setaria viridis), ryegrass, Italian (Italian ryegrass, Lolium multiflorum), winter wheat (Triticum aestivum), wild oat (Avena fatua), galium (catchweed bedstraw, Galium aparine), bermudagrass (Cynodon dactylon), surinam grass (Brachiaria decumbens), cocklebur (common cocklebur, Xanthium strumarium), corn (Zea mays), large crabgrass (Digitaria sanguinalis), woolly cupgrass (Eriochloa villosa), foxtail, giant (giant foxtail, Setaria faberii), goosegrass (Eleusine indica), johnsongrass (Sorghum halepense), kochia (Kochia scoparia), lambsquarters (Chenopodium album), morningglory (Ipomoea coccinea), nightshade (eastern black nightshade, Solanum ptycanthum), nutsedge, yellow (yellow nutsedge, Cyperus esculentus), pigweed (Amaranthus retroflexus), ragweed (common ragweed, Ambrosia elation), soybean (Glycine max), common (oilseed) sunflower (Helianthus annuus), Russian thistle (Salsola kali) and velvetleaf (Abutilon theophrasti) were planted into a blend of loam soil and sand and treated preemergence with test chemicals formulated in a non-phytotoxic solvent mixture which included a surfactant.
as §1, with “13” for “14”, “15” for “21”, “C,” for “E,”

[4] = test system: barley, winter (winter barley, Hordeum vulgare); assay: Test D pre-/postemergence: barley, winter
How it was run: (§2)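 Species were sown in silt loam and sprayed preemergence, or grown in peat/vermiculite medium and sprayed postemergence at the 1- to 4-leaf stage (2–18 cm), with compounds in a surfactant-containing solvent. Injury was visually rated against untreated controls after 14–21 days, on a 0 (no effect) to 100 (complete control) scale.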

[5] = test system: foxtail, green (green foxtail, Setaria viridis); assay: Test D pre-/postemergence: foxtail, green
How it was run: as §2

[6] = test system: Russian thistle (Salsola iberica); assay: Test D pre-/postemergence: Russian thistle; details: Postemergence; for Plant response rating, Russian Thistle: 16 g ai/ha, scale 0 to 100
How it was run: as §2

[7] = 16 g ai/ha, scale 0 to 100, 0 no effect, 100 complete control
[8] = 31 g ai/ha, scale 0 to 100, 0 no effect, 100 complete control
[9] = Postemergence, 31 g ai/ha, scale 0 to 100 (0 no effect, 100 complete control)
[10] = Postemergence, 62 g ai/ha, scale 0 to 100 (0 no effect, 100 complete control)
[11] = Postemergence, 125 g ai/ha, scale 0 to 100, 0 no effect, 100 complete control
[12] = Postemergence, 16 g ai/ha, scale 0 to 100
[13] = Preemergence, 16 g ai/ha, scale 0 to 100, 0 no effect, 100 complete control
[14] = Preemergence, 31 g ai/ha, scale 0 to 100, 0 no effect, 100 complete control
[15] = Preemergence, 62 g ai/ha, scale 0 to 100
[16] = Preemergence, 125 g ai/ha, scale 0 to 100
[17] = 31 g ai/ha, scale 0 to 100 (0 no effect, 100 complete control)
[18] = 62 g ai/ha, scale 0 to 100 (0 no effect, 100 complete control)
[19] = 125 g ai/ha, scale 0 to 100, 0 no effect, 100 complete control

Compound	Plant response rating, Beggarticks ([1]; 62 g ai/ha, scale 0 to 100)	Plant response rating, Beggarticks ([1]; 125 g ai/ha, scale 0 to 100)	Plant response rating, Beggarticks ([1]; 250 g ai/ha, scale 0 to 100)	Plant response rating, Goosegrass ([2]; 62 g ai/ha, scale 0 to 100)	Plant response rating, Goosegrass ([2]; 125 g ai/ha, scale 0 to 100)	Plant response rating, Goosegrass ([2]; 250 g ai/ha, scale 0 to 100)	Plant response rating, Waterhemp [3]	Plant response rating: Barley, Winter [4, 9]	Plant response rating: Barley, Winter [4, 10]	Plant response rating: Barley, Winter [4, 11]	Plant response rating, Barley, Winter [4, 12]	Plant response rating, Barley, Winter [4, 13]	Plant response rating, Barley, Winter [4, 14]	Plant response rating, Barley, Winter [4, 15]	Plant response rating, Barley, Winter [4, 16]	Plant response rating: Foxtail, Green [5, 9]	Plant response rating: Foxtail, Green [5, 10]	Plant response rating: Foxtail, Green [5, 11]	Plant response rating, Foxtail, Green [5, 12]	Plant response rating, Foxtail, Green [5, 13]	further results
CCc1nn(-c2ccc(F)cc2)nc1Cc1ccnc(C(F)(F)F)c1 [Compound 154]	0	0	15	95	100	100	100	–	–	–	–	–	–	–	–	–	–	–	–	–	Plant response rating, Beggarticks [1, 7]: 0; Plant response rating, Beggarticks [1, 8]: 0; Plant response rating, Goosegrass [2, 7]: 10; Plant response rating, Goosegrass [2, 8]: 95
CCc1nn(-c2ccc(C(F)(F)F)cc2)nc1Cc1ccnc(C(F)(F)F)c1 [Compound 155]	40	70	80	100	100	100	100	20	25	35	15	5	0	5	10	15	70	80	20	20	Plant response rating, Foxtail, Green [5, 14]: 65; Plant response rating, Foxtail, Green [5, 15]: 85; Plant response rating, Foxtail, Green [5, 16]: 100; Plant response rating: Russian Thistle [6, 17]: 80; Plant response rating: Russian Thistle [6, 18]: 85; Plant response rating: Russian Thistle [6, 19]: 85; Plant response rating, Russian Thistle [6]: 70
Cc1nn(-c2ccc(F)c(C(F)(F)F)c2)nc1Cc1ccnc(C(F)(F)F)c1 [Compound 156]	–	–	–	–	–	–	100	20	25	30	10	5	5	10	15	25	25	65	10	5	Plant response rating, Foxtail, Green [5, 14]: 10; Plant response rating, Foxtail, Green [5, 15]: 30; Plant response rating, Foxtail, Green [5, 16]: 100; Plant response rating: Russian Thistle [6, 17]: 85; Plant response rating: Russian Thistle [6, 18]: 90; Plant response rating: Russian Thistle [6, 19]: 80; Plant response rating, Russian Thistle [6]: 60
FCc1nn(-c2ccc(F)cc2)nc1Oc1ccnc(C(F)(F)F)c1 [Compound 160]	–	–	–	–	–	–	100	–	–	–	–	–	–	–	–	–	–	–	–	–	–
CCOCc1nn(-c2ccc(F)cc2)nc1Oc1ccnc(C(F)(F)F)c1 [Compound 163]	–	–	–	–	–	–	100	–	–	–	–	–	–	–	–	–	–	–	–	–	–
CCOc1nn(-c2ccc(Cl)cc2)nc1Cc1ccnc(C(F)(F)F)c1 [Compound 188]	–	–	–	–	–	–	100	–	–	–	–	–	–	–	–	–	–	–	–	–	–
